Like-named read-outs stand apart in the source and are kept apart here.
Columns and labels:
benzodiazepine receptor [1] = details: McCabe et al. [h]; cited from earlier work
benzodiazepine receptor [2] = details: cited from earlier work
benzodiazepine receptor [3] = assay: Affinity for the benzodiazepine receptor, method not described; format: binding; details: FIG. 1 legend
benzodiazepine receptor [4] = details: rat receptor material, cited from earlier work
benzodiazepine receptor [5] = target: T1, benzodiazepine receptor; assay: Fluorescent receptor assay for benzodiazepines, calibration curves with FLB as labeled ligand; format: binding, calf; details: 7.3 nM
T1 construct: IC50; other: FLB as labeled ligand, 7.3 nM; Bmax; other: saturation with FLB; other: [3H]flunitrazepam as labeled ligand, 2.2 nM; other: FLB assay concentration 7.3 nM; recov

benzodiazepine receptor [6] = target: T1, benzodiazepine receptor; assay: Radioligand binding assay with [3H]flunitrazepam; parameters: species or system calf
Procedure: Calf brains, obtained from the slaughtcrhouse and stored at −80° C. after discarding the cerebellum, were homogenized in 6 volunmes (w/v) of ice-cold 0.32 M sucrose in a Potter-Elvehjem homogenizer (RW 20 DZW. Janke & Kunkel K G, Staufen i. Breisgau, Germany) fitted with a teflon pestle and centrifuged for 10 min at 1,000 ×g in a Beckman L8-55 Ulcracentrifuge (Beckman Instruments, Mijdrecht, The Netherlands). The supernatant was centrifuged for 60 min at 100,000×g. The resulting pellet (P2) was resuspended in sodium phosphate buffer (pH 7.4; 50 mM) and centrifuged for 30 min at 100,000×g. This washing step was repeated four times. All operations were performed at 4° C. […]
The filters of a MultiScreen-FB filtration plate were pre-wetted by pipetting 200 μl ice-cold Tris-HCl buffer (pH 7.4; 50 mm) into each well. […] After shaking the vials, the radioactivity was counted for 5 min in a Tri-Carb 4000 Packard scintillation counter (Canberra Packard, Groningen, The Netherlands). […]
The saturation and inhibition curves for both the radioactive labeled benzodiazepine [^3H]flunitrazepam and the fluorescent labeled benzodiazepine. […] The specific binding was calculated by subtracting the non-specific binding from the total binding. […] The Bmax value was calculated to be 3.42±0.01 nM, which corresponds to 3.84±0.09 pM/mg protein. […]

benzodiazepine receptor [7] = system: T1, benzodiazepine receptor; assay: Fluorescent binding assay, saturation experiments with FLB; parameters: species or system calf
Procedure: (§1) Calf brains, obtained from the slaughtcrhouse and stored at −80° C. after discarding the cerebellum, were homogenized in 6 volunmes (w/v) of ice-cold 0.32 M sucrose in a Potter-Elvehjem homogenizer (RW 20 DZW. Janke & Kunkel K G, Staufen i. Breisgau, Germany) fitted with a teflon pestle and centrifuged for 10 min at 1,000 ×g in a Beckman L8-55 Ulcracentrifuge (Beckman Instruments, Mijdrecht, The Netherlands). The supernatant was centrifuged for 60 min at 100,000×g. The resulting pellet (P2) was resuspended in sodium phosphate buffer (pH 7.4; 50 mM) and centrifuged for 30 min at 100,000×g. This washing step was repeated four times. All operations were performed at 4° C. The washed P2-pellet was resuspended in 5 volumes (w/v) phosphate buffer, frozen with liquid nitrogen and lyophilized (Hetosicc CD 52-1, Heto, Birkerød, Denmark) . rhe lyophilized P2-pellet was stored at −20° C. For the receptor binding assays, the lyophilized P2-pellet was resuspended in Tris-HCl buffer (pH 7.4; 50 mM) with the glass-teflon Potter homogenizer (3.5 mg/inl).
(§2) For the saturation experiments, 25 μl FLB solution (0.5-50 nM final concentration) in Tris-HCl buffer (pH 7.4; 50 mM) were pipetted in duplicate in the wells of the filtration plate after pre-wetting the filters. […] To this mixture, 200 μl of the receptor suspension (225 μg protein per assay) were added and the plate was shaken for 1 min. […] Hundred μl of the filtrates were analyzed with the above described HPLC-method.
(§3) The saturation and inhibition curves for both the radioactive labeled benzodiazepine [^3H]flunitrazepam and the fluorescent labeled benzodiazepine. […] The specific binding was calculated by subtracting the non-specific binding from the total binding. […] The Bmax value was calculated to be 3.42±0.01 nM, which corresponds to 3.84±0.09 pM/mg protein. […] After binding of BD 623 to the receptor, the fluorescence intensity is decreased and from the level of fluorescence quenching the amount of bound BD 623 can be estimated. […]

benzodiazepine receptor [8] = assay: as above; parameters: species or system calf; details: free initial concentration of 15 nM
Procedure: as §1, §2, §3

fluorescein-NH—(CH2)3-Ro15-3890 [BD 621]
Kd (benzodiazepine receptor [1]): 63 nM

AMCA-didesethylflurazepam [AMCA-Ro7-1986]
Ki (benzodiazepine receptor [2]; from reference [b]): 8.6 nM | non-specific binding (benzodiazepine receptor [2]; reference [b]): 20%

NBD-NH—(CH2)3-Ro15-3890 [BD 623]
Ki (benzodiazepine receptor [3]): 5.7 nM | Bmax (benzodiazepine receptor [4]; fluorescence quenching, no bound/unbound separation): 7.2 nM

O=C1Nc2ccc(Cl)cc2C(c2ccccc2Cl)=NC1O (stereo not shown) [lorazepam]
IC50 (benzodiazepine receptor [5]): 7.2 ± 0.5 nM | IC50 (benzodiazepine receptor [6]; [3H]flunitrazepam as labeled ligand, 2.2 nM): 6.61 ± 0.69 nM

CN1C(=O)CN=C(c2ccccc2)c2cc(Cl)ccc21 [diazepam]
IC50 (benzodiazepine receptor [5]): 41 ± 7 nM

Mmc-O—CO—(CH2)3-Ro15-3890 [FLB]
added FLB bound to the receptors (total binding) (benzodiazepine receptor [7]; FLB assay concentration 7.3 nM): 26% | Kd (benzodiazepine receptor [7]; saturation curve, one-binding site model, read-out: binding affinity (Kd) for the benzodiazepine receptor): ~7.3 nM | non-specific binding, % of the total binding (benzodiazepine receptor [8]): 25% | Ki (benzodiazepine receptor [6]; read-out: Ki-value, inhibition assays with [3H]flunitrazepam): 6.5 nM

CCOC(=O)c1ncn2c1CN(C)C(=O)c1cc(F)ccc1-2 [[^3H]flumazenil]
Bmax (benzodiazepine receptor [4]; filtration): 2.3 nM
